In general, IC50 refers to the concentration that gives 50% inhibition. Higher therefore signals weaker potency in that assay.

These results are taken from BindingDB's records for doi:10.1016/j.bmcl.2003.11.079 (Millennium Pharmaceuticals, 2004).

A value given as a limit tells only on which side of the number the result lay.

For the assay, the target named is Trypsin. In words: Inhibitory concentration against trypsin was determined.

Turning to `NS(=O)(=O)c1ccccc1-c1ccc(C(=O)Nc2ccccc2C(=O)Nc2ccc(Br)cn2)cc1` [2'-Sulfamoyl-biphenyl-4-carboxylic acid [2-(5-bromo-pyridin-2-ylcarbamoyl)-phenyl]-amide], the IC50 was over 10 µM.
